Laboratory results: article PMC11374673, “Discovery of isoquinoline sulfonamides as allosteric gyrase inhibitors with activity against fluoroquinolone-resistant bacteria” (Nature Chemistry, 2024)
≈ marks a conversion by molar mass, not a printed value. Read-outs that look alike come from different tables or passages of the source.

Columns and labels:
[1] = system: K. pneumoniae ATCC 29665; assay: MIC by broth microdilution; format: cell-based, Klebsiella pneumoniae; conditions: read-out: MIC K. pneumoniae ATCC 29665
Procedure: (§1) MIC was determined by broth microdilution. Single-colony cultures were grown to exponential phase (OD600 of 0.5) aerobically at 37 °C. In case of strains from the Keio collection, 50 µg ml^−1 kanamycin was supplemented to the media to ascertain a homogeneous population. The bacterial suspensions were diluted 100-fold in CAMHB and 50 µl was added to a twofold serial dilution series of test compounds (50 µl per well) in polypropylene 96-well microtitre plates to reach a volume of 100 µl. The plates were sealed with breathable membranes and incubated overnight at 37 °C with constant shaking (600 r.p.m.).

[2] = system: E. coli W3110; assay: MIC by broth microdilution; format: cell-based, Escherichia coli; conditions: for antimicrobial activity: relative to parent compound
Procedure: as §1

[3] = Klebsiella pneumoniae, ATCC29665, broth microdilution
[4] = Escherichia coli, W3110, WT, broth microdilution, read-out: MIC E. coli W3110
[5] = WT, broth microdilution, read-out: MIC E. coli W3110
[6] = Escherichia coli, W3110, follow-up of the 12 library hits, read-out: MIC E. coli

Row | MIC [1, 3] [µM] | MIC ([1]; broth microdilution) [µM] | MIC [2, 4] [µM] | MIC [2, 5] [µM] | MIC [2, 6] [µM] | Compound | antimicrobial activity [2]
1 | > 50 | >50 | > 50 | >50 | – | Cc1ccc(-c2ccc(CNCCNS(=O)(=O)c3cccc4cnccc34)cc2)cc1 [Compound 62] | –
2 | 50 (≈ 22.6 µg/mL) | – | 25 (≈ 11.3 µg/mL) | – | – | O=S(=O)(NCCNCc1ccc(-c2ccccc2Cl)cc1)c1cccc2cnccc12 [Compound 70] | –
3 | > 50 | >50 | > 50 | >50 | – | O=C(NCCNCc1ccc(-c2cccnc2)cc1)c1cccc2cnccc12 [Compound 91] | loss of activity
4 | > 50 | >50 | > 50 | >50 | – | O=S(=O)(NCCOCc1ccc(-c2cccnc2)cc1)c1cccc2cnccc12 [Compound 94] | abolished all activity
5 | – | – | – | – | 25 (≈ 8.64 µg/mL) | Cc1ccc(S(=O)(=O)N[C@@H]2C(=O)c3cc(C)ccc3O[C@H]2C)cc1 [IMI1517570] | –
6 | > 50 | >50 | > 50 | >50 | – | O=S(=O)(NCCNCc1ccc(-c2cccnc2)nc1)c1cccc2cnccc12 [Compound 79] | –
7 | 25 (≈ 10.5 µg/mL) | – | 12.5 (≈ 5.23 µg/mL) | – | – | O=S(=O)(NCCNCc1ccc(-c2ccncc2)cc1)c1cccc2cnccc12 [Compound 65] | –
8 | > 50 | >50 | > 50 | >50 | – | O=S(=O)(NCCNCc1ccc(-c2cccnc2)cc1)c1ccnc2[nH]ccc12 [Compound 54] | –
9 | – | – | – | – | > 50 | Nc1cc2c(S(=O)(=O)NCCNC/C=C/c3ccc(-c4cccnc4)cc3)cccc2cn1 [SG181] | –
10 | > 50 | >50 | > 50 | >50 | – | O=S(=O)(NCCNCc1ccc(-c2ccccc2)nc1)c1cccc2cnccc12 [Compound 80] | –
11 | 25 (≈ 11.1 µg/mL) | – | 12.5 (≈ 5.53 µg/mL) | – | – | N#Cc1cccc(-c2ccc(CNCCNS(=O)(=O)c3cccc4cnccc34)cc2)c1 [Compound 68] | –
12 | > 50 | >50 | > 50 | >50 | – | O=S(=O)(NCCNCc1ccc(-c2ccc(F)nc2)nc1)c1cccc2cnccc12 [Compound 81] | –
13 | – | – | – | – | > 50 | O=S(=O)(NCCNCCc1ccc(-c2cccnc2)cc1)c1cccc2cnccc12 [BB077] | –
14 | > 50 | >50 | > 50 | >50 | – | O=S(=O)(NCCNCc1ccc(-c2cccnc2)cc1)c1cccc2[nH]ncc12 [Compound 49] | –
15 | > 50 | >50 | > 50 | >50 | – | O=S(=O)(NCCNCc1ccc(-c2ccc3c(c2)OCO3)cc1)c1cccc2cnccc12 [Compound 77] | –
16 | > 50 | >50 | > 50 | >50 | – | O=S(=O)(NCCNCc1ccc(-c2cccnc2)cc1)c1ccc2cn[nH]c2c1 [Compound 50] | –
17 | > 50 | >50 | 50 (≈ 23.5 µg/mL) | – | – | O=S(=O)(NCCNCc1ccc(-c2ccc(F)cc2)c(Cl)c1)c1cccc2cnccc12 [Compound 86] | –
